From US8722910B2, “Diyne compositions” (Evolva AG, priority 2009, dated 2014)
≈ marks a conversion by molar mass, not a printed value. Like-named read-outs stand apart in the source and are kept apart here.

Tests used:
[1] = test system: C. albicans; assay: Rat model of systemic candidiasis, single intravenous infusion, liver burden; type: in vivo; details: rats
[2] = test system: C. albicans; assay: Rat model of systemic candidiasis, single oral administration, kidney burden; type: in vivo; details: rats
[3] = Stability of diyne salts on storage (HPLC content); type: physicochemical
Method: Potassium (Z)-14-(furan-2-yl)tetradeca-9-en-11,13-diynoate was kept as a crystalline solid for 6 month at 2-8° C. The content of potassium (Z)-14-(furan-2-yl)tetradeca-9-en-11,13-diynoate was determined by HPLC against a reference sample kept at −20° C. After 6 months of storage characteristics such as colour, water content, XRPD profile, of the solid had not changed and it was still a beige solid. […] Also no change in the impurity profile was observed after 6 months storage.
Potassium (Z)-14-(furan-2-yl)tetradeca-9-en-11,13-diynoate was also kept as a crystalline solid for 6 month at 25° C., 60% RH. Analysis was performed as described above. After 6 months of storage characteristics of the solid has not changed and it was still a beige solid. […] Also no change in the impurity profile was observed after 6 months storage.
Potassium (Z)-14-(furan-2-yl)tetradeca-9-en-11,13-diynoate was also kept as a crystalline solid for 6 month at 40° C., 75% RH. Analysis was performed as described above. After 6 months of storage the appearance of the solid had changed to a brown solid. Furthermore, a decrease in the content of potassium (Z)-14-(furan-2-yl)tetradeca-9-en-11,13-diynoate to 96% was observed as analysed by HPLC.
Sodium (Z)-14-(furan-2-yl)tetradeca-9-en-11,13-diynoate was kept as an amorphous solid at room temperature. […] Furthermore the salt was dissolved in an aqueous solution and already after few days the content of sodium (Z)-14-(furan-2-yl)tetradeca-9-en-11,13-diynoate was reduced by 35%, thus proving strong instability of the amorphous salt form.

[4] = test system: C. dubliniensis; assay: Susceptibility of clinical isolates (MIC, broth dilution); type: cell-based; details: Candida dubliniensis; C. dubliniensis (n = 25); M27-A3, 24 hrs; read at 50% inhibition (potassium salt, Voriconazole), 100% (Amphotericin), MEC (Caspofungin); read-out: MIC90
Method: (§1) The efficacy of compound IV″ was investigated on 563 clinical isolates of 33 human fungal pathogens. […] For species with n≧10, the MIC90 (MIC, minimal inhibitory concentration) is given as ng/ml. For species with n≦10, the MIC range is given as ng/ml. 24 h and 48 h reads are indicated (Table 1).
(§2) The in vitro efficacy of antifungal compounds is determined in susceptibility assays, which are indicative for the spectrum and potency of a compound. Susceptibilities are reported as minimal inhibitory concentrations (MIC, as ng/ml or μg/ml) required to inhibit growth to a defined degree compared to the drug free control. The MIC90 defines the MIC required to inhibit growth for ≧90% of the strains of a population tested.
(§3) The MIC90 was calculated for the indicated species.

[5] = test system: C. glabrata; assay: as above; type: cell-based; details: Nakaseomyces glabratus
Method: as §1, §2, §3

[6] = test system: C. krusei; assay: as above; type: cell-based; details: Pichia kudriavzevii; C. krusei (n = 27); M27-A3, 24 hrs; read at 50% inhibition (potassium salt, Voriconazole), 100% (Amphotericin), MEC (Caspofungin); read-out: MIC90
Method: as §1, §2, §3

[7] = test system: C. lusitaniae; assay: as above; type: cell-based; details: Clavispora lusitaniae; C. lusitaniae (n = 24); M27-A3, 24 hrs; read at 50% inhibition (potassium salt, Voriconazole), 100% (Amphotericin), MEC (Caspofungin); read-out: MIC90
Method: as §1, §2, §3

[8] = test system: C. parapsilosis; assay: as above; type: cell-based; details: Lodderomyces parapsilosis
Method: as §1, §2, §3

[9] = test system: C. tropicalis; assay: as above; type: cell-based; details: Candida tropicalis; C. tropicalis (n = 35); M27-A3, 24 hrs; read at 50% inhibition (potassium salt, Voriconazole), 100% (Amphotericin), MEC (Caspofungin); read-out: MIC90
Method: as §1, §2, §3

[10] = test system: C. glabrata, Fluconazole, Voriconazole, Itraconazole and/or Caspofungin resistant isolates; assay: Susceptibility of resistant clinical isolates (MIC, broth dilution); type: cell-based; details: Nakaseomyces glabratus; C. glabrata resistant (n = 21): isolates resistant to Fluconazole, Itraconazole, Voriconazole and Caspofungin; read-out: MIC90
Method: as §1, §3

[11] = test system: Coccidioides spp.; assay: microbe, parasite or virus in culture; type: cell-based; details: Coccidioides, 48 h
[12] = test system: B. dermatitidis; assay: Susceptibility of clinical dimorphic fungi (MIC); type: cell-based; details: Blastomyces dermatitidis; B. dermatitidis (n = 30); CLSI M38-A2; 50% growth reduction; MIC read at 96 h
[13] = test system: H. capsulatum; assay: microbe, parasite or virus in culture; type: cell-based; details: Histoplasma capsulatum, 120 h
[14] = test system: C. albicans; assay: Fatty acid competition (antagonism) in 96-well plates; details: 48 h
[15] = test system: Enterobacter faecalis 29212; assay: In vitro Antibacterial Activity; type: cell-based
[16] = test system: Escherichia coli 700; assay: In vitro Antibacterial Activity; type: cell-based
[17] = test system: C. albicans; assay: Susceptibility of clinical isolates (MIC, broth dilution); type: cell-based; details: Candida albicans; C. albicans (n = 20); M27-A3, 24 hrs; read at 50% inhibition (potassium salt, Voriconazole), 100% (Amphotericin), MEC (Caspofungin); read-out: MIC90
Method: as §1, §2, §3

[18] = test system: A. flavus; assay: Susceptibility of clinical Aspergillus isolates (MIC); type: cell-based; details: Aspergillus flavus; A. flavus (n = 2); CLSI M38-A2; 50% growth inhibition; 24 h; read-out: MIC50
Method: as §1
(§4) Susceptibilities were determined according to the CLSI reference method M38-A2.

[19] = test system: A. fumigatus; assay: as above; type: cell-based; details: Aspergillus fumigatus; A. fumigatus (n = 20); CLSI M38-A2; 50% growth inhibition; 24 h; read-out: MIC50
Method: as §1, §4

[20] = test system: A. nidulans; assay: as above; type: cell-based; details: 24 h
Method: as §1, §4

[21] = test system: A. niger; assay: as above; type: cell-based; details: A. niger (n = 6), CLSI M38-A2, 50% growth inhibition, 24 h, read-out: MIC50
Method: as §1, §4

[22] = test system: A. terreus; assay: as above; type: cell-based; details: Aspergillus terreus; A. terreus (n = 5); CLSI M38-A2; 50% growth inhibition; 24 h; read-out: MIC50
Method: as §1, §4

[23] = test system: A. versicolor; assay: as above; type: cell-based; details: Aspergillus versicolor; A. versicolor (n = 3); CLSI M38-A2; 50% growth inhibition; 24 h; read-out: MIC50
Method: as §1, §4

[24] = test system: Staphylococcus aureus 29213; assay: In vitro Antibacterial Activity; type: cell-based
[25] = test system: Candida albicans; assay: In vitro antifungal activity vs. yeasts (MIC/MFC); type: cell-based; details: Candida albicans (n = 8); 90% inhibition endpoint
[26] = test system: C. glabrata; assay: In vitro antifungal activity vs. yeasts (MIC/MFC); type: cell-based; details: Nakaseomyces glabratus; C. glabrata (n = 1); 90% inhibition endpoint
[27] = test system: C. lusitaniae; assay: In vitro antifungal activity vs. yeasts (MIC/MFC); type: cell-based; details: Clavispora lusitaniae
[28] = test system: C. lipolytica; assay: In vitro antifungal activity vs. yeasts (MIC/MFC); type: cell-based; details: Yarrowia lipolytica
[29] = test system: C. guilliermondii; assay: In vitro antifungal activity vs. yeasts (MIC/MFC); type: cell-based; details: Meyerozyma guilliermondii; C. guilliermondii (n = 1); 90% inhibition endpoint
[30] = test system: C. parapsilosis; assay: In vitro antifungal activity vs. yeasts (MIC/MFC); type: cell-based; details: Lodderomyces parapsilosis; C. parapsilosis (n = 2); 90% inhibition endpoint
[31] = test system: C. krusei; assay: In vitro antifungal activity vs. yeasts (MIC/MFC); type: cell-based; details: Pichia kudriavzevii; C. krusei (n = 1); 90% inhibition endpoint
[32] = test system: Malassezia furfur; assay: In vitro antifungal activity vs. yeasts (MIC/MFC); type: cell-based; details: Malassezia furfur
[33] = test system: all Candida strains; assay: MIC range over all Candida strains tested; type: cell-based; details: Table 13 strains
[34] = test system: ergosterol biosynthesis; assay: 13C-acetate incorporation into ergosterol; type: cell-based, Candida albicans; details: drug at about its MIC, added after the first 15 minutes
[35] = test system: C. albicans; assay: Effect on the morphology of growing Candida albicans cultures; type: cell-based; details: inhibiting concentrations

Compound: O=C([O-])CCCCCCC/C=C\C#CC#Cc1ccco1.[Na+] [Compound V″, sodium (Z)-14-(furan-2-yl)tetradeca-9-en-11,13-diynoate]
- decrease of liver fungal burden (CFU per gram tissue) ([1]; single intravenous infusion 12 mg/kg, 24 h): 93%
- decrease of kidney fungal burden (CFU per gram tissue) ([2]; single oral dose 17 mg/kg, 6 h): 57%
- appearance after storage ([3]; amorphous solid at room temperature, short term storage): the colour darkened
- reduction of content in aqueous solution ([3]; aqueous solution, after few days): 35%

Compound: CC[C@H](C)C[C@H](C)CCCCCCCCC(=O)N[C@H]1C[C@@H](O)[C@@H](NCCN)NC(=O)[C@@H]2[C@@H](O)CCN2C(=O)[C@H]([C@H](O)CCN)NC(=O)[C@H]([C@H](O)[C@@H](O)c2ccc(O)cc2)NC(=O)[C@@H]2C[C@@H](O)CN2C(=O)[C@H]([C@@H](C)O)NC1=O [Caspofungin]
- MIC90 [4]: 1 µg/mL
- MIC90 ([5]; C. glabrata (n = 25), M27-A3, 24 hrs, read at 50% inhibition (potassium salt, Voriconazole), 100% (Amphotericin), MEC (Caspofungin), read-out: MIC90): 2 µg/mL
- MIC90 [6]: 2 µg/mL
- MIC90 [7]: 2 µg/mL
- MIC90 ([8]; C. parapsilosis (n = 37), M27-A3, 24 hrs, read at 50% inhibition (potassium salt, Voriconazole), 100% (Amphotericin), MEC (Caspofungin), read-out: MIC90): 8 µg/mL
- MIC90 [9]: 1 µg/mL
- MIC90 [10]: 2 µg/mL (≈ 1.83 µM)
- MIC90 [11]: 0.5 µg/mL (≈ 0.457 µM)
- MIC90 [12]: 4 µg/mL (≈ 3.66 µM)
- MIC90 [13]: 2 µg/mL (≈ 1.83 µM)
- effect of oleic acid / stearic acid on susceptibility [14]: oleic acid did not decrease the susceptibility

Compound: CC1(C)S[C@@H]2[C@H](NC(=O)[C@H](N)c3ccccc3)C(=O)N2[C@H]1C(=O)O [Ampicillin, reference compound]
- MIC90 [15]: 0.78 µg/mL (≈ 2.23 µM)
- MIC90 [16]: 3.12 µg/mL (≈ 8.94 µM)

Compound: C[C@@H](c1ncncc1F)[C@](O)(Cn1cncn1)c1ccc(F)cc1F [Voriconazole]
- MIC90 [17]: 0.03 µg/mL
- MIC90 [4]: 0.016 µg/mL
- MIC90 ([5]; 24 h): 0.125 µg/mL (≈ 0.358 µM)
- MIC90 [6]: 0.5 µg/mL
- MIC90 [7]: 0.03 µg/mL
- MIC90 ([8]; 24 h): 0.125 µg/mL (≈ 0.358 µM)
- MIC90 [9]: 0.03 µg/mL
- MIC50 [18]: 0.5 µg/mL (≈ 1.43 µM)
- MIC50 [19]: 0.25 µg/mL (≈ 0.716 µM)
- MIC50 [20]: 0.125 µg/mL (≈ 0.358 µM)
- MIC50 [21]: 1 µg/mL (≈ 2.86 µM)
- MIC50 [22]: 0.25 µg/mL (≈ 0.716 µM)
- MIC50 [23]: 0.25 µg/mL (≈ 0.716 µM)
- MIC90 [11]: 0.125 µg/mL (≈ 0.358 µM)
- MIC90 [12]: 0.25 µg/mL (≈ 0.716 µM)
- MIC90 [13]: 0.125 µg/mL (≈ 0.358 µM)
- effect of oleic acid / stearic acid on susceptibility [14]: oleic acid did not decrease the susceptibility

Compound: Gentamicin [reference compound]
- MIC90 [24]: Gentamicin—0.78 μg/ml

Compound: OC(Cn1cncn1)(Cn1cncn1)c1ccc(F)cc1F [Fluconazole, reference compound]
- MIC [25]: 1 µg/mL (≈ 3.27 µM)
- MIC [26]: 2 µg/mL (≈ 6.53 µM)
- MIC [27]: 0.125 µg/mL (≈ 0.408 µM)
- MIC [28]: 0.125 µg/mL (≈ 0.408 µM)
- MIC [29]: 4 µg/mL (≈ 13.1 µM)
- MIC [30]: 1 µg/mL (≈ 3.27 µM)
- MIC [31]: 16 µg/mL (≈ 52.2 µM)
- MIC [32]: 0.125 µg/mL (≈ 0.408 µM)
- MIC range for all Candida strains [33]: 0.125 to 16 µg/mL
- net biosynthesis of ergosterol (13C-acetate incorporation) [34]: inhibited the incorporation of acetate into ergosterol
- effect on hyphal tube formation ([35]; microscopy): did not affect hyphal tube formation
- effect on cell growth ([35]; microscopy and MTT): permitted fungal growth (albeit at a reduced rate)
- reduction of tissue burden (cfu/g tissue), comparator ([1]; liver, vs vehicle at 24 hours, dose not given): 93%
- reduction of tissue burden (cfu/g tissue), comparator ([2]; vs vehicle at 24 hours, dose not given): 90%
